Laboratory results published in ChEMBL document CHEMBL4145509, “Unravelling the binding mechanism of benproperine with human serum albumin: A docking, fluorometric, and thermodynamic approach” (Eur J Med Chem, 2018).

Experiments:
[1] = molecular target: T1, Albumin (Homo sapiens, UniProt P02768); assay: Binding affinity to human serum albumin assessed as Stern-Volmer quenching constant after 1 hr at 37 degC by fluorescence spectroscopic analysis; format: ADME; conditions: isolated protein
[2] = molecular target: T1, Albumin; assay: Binding affinity to human serum albumin assessed as fluorescence lifetime decay 2 at HSA:compound ratio of 1:10 after 1 hr by fluorescence spectroscopic analysis (reference value: 0.584 +/- 0.047 nanoseconds); format: ADME; conditions: isolated protein
[3] = molecular target: T1, Albumin; assay: Binding affinity to human serum albumin assessed as binding constant after 1 hr at 25 degC by fluorescence spectroscopic analysis; format: ADME; conditions: isolated protein
[4] = molecular target: T1, Albumin; assay: Binding affinity to human serum albumin assessed as fluorescence lifetime decay 2 at HSA:compound ratio of 1:2 after 1 hr by fluorescence spectroscopic analysis (reference value: 0.584 +/- 0.047 nanoseconds); format: ADME; conditions: isolated protein
[5] = molecular target: T1, Albumin; assay: Binding affinity to human serum albumin by isothermal titration microcalorimetry; format: ADME; conditions: isolated protein
[6] = molecular target: T1, Albumin; assay: Binding affinity to human serum albumin assessed as fluorescence lifetime decay 1 at HSA:compound ratio of 1:10 after 1 hr by fluorescence spectroscopic analysis (reference value: 3.917 +/- 0.039 nanoseconds); format: ADME; conditions: isolated protein
[7] = molecular target: T1, Albumin; assay: Induction of conformational changes in human serum albumin assessed as reduction in alpha-helical content at HSA:compound ratio of 1:10 by CD spectral analysis (reference value: 52.6%); parameters: scale not given: the % may be the effect or the level left
[8] = molecular target: T1, Albumin; assay: Binding affinity to human serum albumin assessed as fluorescence lifetime decay 3 at HSA:compound ratio of 1:2 after 1 hr by fluorescence spectroscopic analysis (reference value: 6.876 +/- 0.177 nanoseconds); format: ADME; conditions: isolated protein
[9] = molecular target: T1, Albumin; assay: Binding affinity to human serum albumin assessed as fluorescence lifetime decay 1 at HSA:compound ratio of 1:2 after 1 hr by fluorescence spectroscopic analysis (reference value: 3.917 +/- 0.039 nanoseconds); format: ADME; conditions: isolated protein
[10] = molecular target: T1, Albumin; assay: Induction of conformational changes in human serum albumin assessed as reduction in alpha-helical content at HSA:compound ratio of 1:2 by CD spectral analysis (reference value: 52.6%); parameters: scale not given: the % may be the effect or the level left
[11] = molecular target: T1, Albumin; assay: Binding affinity to human serum albumin assessed as Stern-Volmer quenching constant after 1 hr at 25 degC by fluorescence spectroscopic analysis; format: ADME; conditions: isolated protein
[12] = molecular target: T1, Albumin; assay: Binding affinity to human serum albumin assessed as binding constant after 1 hr at 37 degC by fluorescence spectroscopic analysis; format: ADME; conditions: isolated protein
[13] = molecular target: T1, Albumin; assay: Binding affinity to human serum albumin assessed as fluorescence lifetime decay 3 at HSA:compound ratio of 1:10 after 1 hr by fluorescence spectroscopic analysis (reference value: 6.876 +/- 0.177 nanoseconds); format: ADME; conditions: isolated protein

T1 sequence (P02768 whole entry): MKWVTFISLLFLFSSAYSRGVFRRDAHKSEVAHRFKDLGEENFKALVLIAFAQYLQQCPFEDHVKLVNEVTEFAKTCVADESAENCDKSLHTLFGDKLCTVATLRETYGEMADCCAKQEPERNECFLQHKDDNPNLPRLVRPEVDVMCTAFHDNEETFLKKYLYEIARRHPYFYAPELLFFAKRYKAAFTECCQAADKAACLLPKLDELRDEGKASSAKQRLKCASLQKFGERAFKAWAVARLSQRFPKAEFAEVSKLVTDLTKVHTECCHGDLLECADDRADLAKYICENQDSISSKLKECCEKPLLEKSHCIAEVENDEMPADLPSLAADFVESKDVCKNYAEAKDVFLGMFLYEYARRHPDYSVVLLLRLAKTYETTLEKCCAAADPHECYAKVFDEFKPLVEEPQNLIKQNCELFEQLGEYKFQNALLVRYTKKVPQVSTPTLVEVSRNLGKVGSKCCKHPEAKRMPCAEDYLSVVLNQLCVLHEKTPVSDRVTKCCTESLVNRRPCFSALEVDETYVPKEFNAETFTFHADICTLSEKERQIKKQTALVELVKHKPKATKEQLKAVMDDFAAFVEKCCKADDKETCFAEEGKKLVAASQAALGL

CC(COc1ccccc1Cc1ccccc1)N1CCCCC1 (stereo not drawn) [BENPROPERINE]
KSV [1]: 1.99 ×10⁴ L/mol
Time [2]: 0.488 nanoseconds
K [3]: 2.01 ×10⁴ L/mol
Time [4]: 0.515 nanoseconds
K [5]: 1.97 ×10⁴ L/mol
Time [6]: 3.699 nanoseconds
Activity [7]: 47.88%
Time [8]: 6.858 nanoseconds
Time [9]: 3.852 nanoseconds
Activity [10]: 49.06%
KSV [11]: 2.74 ×10⁴ L/mol
K [12]: 1.1 ×10⁴ L/mol
Time [13]: 6.84 nanoseconds
